Laboratory results reported in article PMC2131784, “Inhibition of Chk1 Kills Tetraploid Tumor Cells through a p53-Dependent Pathway” (PLoS ONE, 2007).

Biological target: T1, Chk1 (checkpoint kinase-1) (Homo sapiens, UniProt O14757)
T1 construct: gene CHEK1; recombinant Chk1
T1 sequence (O14757 1-476): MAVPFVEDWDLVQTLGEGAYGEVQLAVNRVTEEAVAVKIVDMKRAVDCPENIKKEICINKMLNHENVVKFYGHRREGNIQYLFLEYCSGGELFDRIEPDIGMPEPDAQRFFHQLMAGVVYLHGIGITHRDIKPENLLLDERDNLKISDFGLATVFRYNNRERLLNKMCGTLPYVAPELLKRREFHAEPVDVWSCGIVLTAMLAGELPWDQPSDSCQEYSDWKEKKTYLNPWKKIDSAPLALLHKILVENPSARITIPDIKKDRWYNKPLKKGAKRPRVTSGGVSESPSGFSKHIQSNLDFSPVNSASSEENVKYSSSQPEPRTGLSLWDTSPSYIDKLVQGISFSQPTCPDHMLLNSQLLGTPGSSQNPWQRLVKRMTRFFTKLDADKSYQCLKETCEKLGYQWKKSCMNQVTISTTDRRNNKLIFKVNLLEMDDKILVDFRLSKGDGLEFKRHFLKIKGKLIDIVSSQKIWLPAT
Assay: in vitro inhibition of recombinant Chk1 (assay details not given)
Assay type: biochemical

## SD1825
  IC50: 29 nM
